From US6355799B1, “Substituted benzene compounds, process for their preparation, and herbicidal and defoliant compositions containing them” (ISK Americas Incorporated, priority 1997, dated 2002)

Legend:
Type in all cases: in vivo
[1] = tested on: field corn (Zea mays L., var. Dekalb 535, CORN); assay: Pre-emerge test, crop safety; conditions: for Pre-emerge phytotoxicity rating (0-100), crop damage, CORN: rated 14 days after application, 0 = no damage, 100 = complete death; for phytotoxicity rating CORN (crop damage): pre-emerge, 14 days after application, scale 0-100
Summary of the method: (§1)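 Herbicidal damage is scored 0 (none) to 100 (complete plant death) two weeks after a simulated field spray. Rates span 15–1000 g ai/ha, delivered in acetone at 187 l/ha. For post-emergence treatments, plants have 2–3 leaves and the spray carries 0.25% v/v non-ionic surfactant.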

[2] = tested on: upland rice (Oryza sp., var. Tebonnet, RICE); assay: Pre-emerge test, crop safety; conditions: for Pre-emerge phytotoxicity rating (0-100), crop damage, RICE: rated 14 days after application, 0 = no damage, 100 = complete death; for phytotoxicity rating RICE (crop damage): pre-emerge, 14 days after application, scale 0-100
Summary of the method: as §1

[3] = tested on: sicklepod (Cassia obtusifolia, CASOB); assay: Post-emerge test, greenhouse herbicide activity screening; conditions: post-emerge, 14 days after application, rating scale 0-100
Summary of the method: (§2)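 Rating: 0–100 visual injury, 14 DAA. Application: acetone, 187 l/ha, 15–1000 g ai/ha, flat-fan track sprayer with nozzle 40–45 cm above soil or canopy. Post-emerge runs used 0.25% v/v surfactant on 2–3 leaf plants.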

[4] = tested on: large crabgrass (Digitaria sanguinalis, DIGSA); assay: as above; conditions: post-emerge, 14 days after application, rating scale 0-100
Summary of the method: as §2

[5] = tested on: ivyleaf morningglory (Ipomoea hederacea, IPOHE); assay: as above; conditions: post-emerge, 14 days after application, rating scale 0-100
Summary of the method: as §2

[6] = tested on: barnyardgrass (Echinochloa crus-galli, ECHCG); assay: as above; conditions: post-emerge, 14 days after application, rating scale 0-100
Summary of the method: as §2

[7] = tested on: johnsongrass (Sorghum halepense, SORHA); assay: as above; conditions: post-emerge, 14 days after application, rating scale 0-100
Summary of the method: as §2

[8] = tested on: lambsquarters (Chenopodium album, CHEAL); assay: as above; conditions: post-emerge, 14 days after application, rating scale 0-100
Summary of the method: as §2

[9] = tested on: common ragweed (Ambrosia artemisizfolia L., AMBEL); assay: as above; conditions: post-emerge, 14 days after application, rating scale 0-100
Summary of the method: as §2

[10] = tested on: redroot pigweed (Amaranthus retroflexus, AMARE); assay: as above; conditions: post-emerge, 14 days after application, rating scale 0-100
Summary of the method: as §2

[11] = tested on: green foxtail (Setaria viridis, SETVI); assay: as above; conditions: post-emerge, 14 days after application, rating scale 0-100
Summary of the method: as §2

[12] = tested on: velvetleaf (Abutilon theophrasti, ABUTH); assay: as above; conditions: post-emerge, 14 days after application, rating scale 0-100
Summary of the method: as §2

[13] = tested on: sicklepod (Cassia obtusifolia, CASOB); assay: Pre-emerge test, greenhouse herbicide activity screening; conditions: for Pre-emerge Herbicidal Activity, phytotoxicity rating (0-100), CASOB: rated 14 days after application, 0 = no damage, 100 = complete death; for phytotoxicity rating CASOB: pre-emerge, 14 days after application, scale 0-100
Summary of the method: (§3)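 Applied at 15–1000 g ai/ha from acetone in 187 l/ha spray volume. Post-emergence applications included 0.25% v/v non-ionic surfactant and reached plants sown 8–21 days before. Pre-emergence applications were incorporated by surface watering. Efficacy or crop damage was rated on a 0–100 scale after 14 days.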

[14] = tested on: large crabgrass (Digitaria sanguinalis, DIGSA); assay: as above; conditions: for Pre-emerge Herbicidal Activity, phytotoxicity rating (0-100), DIGSA: rated 14 days after application, 0 = no damage, 100 = complete death; for phytotoxicity rating DIGSA: pre-emerge, 14 days after application, scale 0-100
Summary of the method: as §3

[15] = tested on: ivyleaf morningglory (Ipomoea hederacea, IPOHE); assay: as above; conditions: for Pre-emerge Herbicidal Activity, phytotoxicity rating (0-100), IPOHE: rated 14 days after application, 0 = no damage, 100 = complete death; for phytotoxicity rating IPOHE: pre-emerge, 14 days after application, scale 0-100
Summary of the method: as §3

[16] = tested on: barnyardgrass (Echinochloa crus-galli, ECHCG); assay: as above; conditions: for Pre-emerge Herbicidal Activity, phytotoxicity rating (0-100), ECHCG: rated 14 days after application, 0 = no damage, 100 = complete death; for phytotoxicity rating ECHCG: pre-emerge, 14 days after application, scale 0-100
Summary of the method: as §3

[17] = tested on: johnsongrass (Sorghum halepense, SORHA); assay: as above; conditions: for Pre-emerge Herbicidal Activity, phytotoxicity rating (0-100), SORHA: rated 14 days after application, 0 = no damage, 100 = complete death; for phytotoxicity rating SORHA: pre-emerge, 14 days after application, scale 0-100
Summary of the method: as §3

[18] = tested on: lambsquarters (Chenopodium album, CHEAL); assay: as above; conditions: for Pre-emerge Herbicidal Activity, phytotoxicity rating (0-100), CHEAL: rated 14 days after application, 0 = no damage, 100 = complete death; for phytotoxicity rating CHEAL: pre-emerge, 14 days after application, scale 0-100
Summary of the method: as §3

[19] = tested on: green foxtail (Setaria viridis, SETVI); assay: as above; conditions: for Pre-emerge Herbicidal Activity, phytotoxicity rating (0-100), SETVI: rated 14 days after application, 0 = no damage, 100 = complete death; for phytotoxicity rating SETVI: pre-emerge, 14 days after application, scale 0-100
Summary of the method: as §3

[20] = tested on: velvetleaf (Abutilon theophrasti, ABUTH); assay: as above; conditions: for Pre-emerge Herbicidal Activity, phytotoxicity rating (0-100), ABUTH: rated 14 days after application, 0 = no damage, 100 = complete death; for phytotoxicity rating ABUTH: pre-emerge, 14 days after application, scale 0-100
Summary of the method: as §3

[21] = tested on: field corn (Zea mays L., var. Dekalb 535, CORN); assay: Post-emerge test, crop safety; conditions: post-emerge, 14 days after application, rating scale 0-100
Summary of the method: as §3

[22] = tested on: upland rice (Oryza sp., var. Tebonnet, RICE); assay: Post-emerge test, crop safety; conditions: post-emerge, 14 days after application, rating scale 0-100
Summary of the method: as §3

[23] = tested on: redroot pigweed (Amaranthus retroflexus, AMARE); assay: Pre-emerge test, greenhouse herbicide activity screening; conditions: for Pre-emerge Herbicidal Activity, phytotoxicity rating (0-100), AMARE: rated 14 days after application, 0 = no damage, 100 = complete death; for phytotoxicity rating AMARE: pre-emerge, 14 days after application, scale 0-100
Summary of the method: as §2

COc1c(Cl)cc(F)c(-n2c(=O)cc(C(F)(F)F)n(C)c2=O)c1NC(=O)c1cnc2ccccc2n1 [2-105]
Pre-emerge phytotoxicity rating (0-100), crop damage, CORN ([1]; 63 g ai/ha): 10
Pre-emerge phytotoxicity rating (0-100), crop damage, CORN ([1]; 250 g ai/ha): 10
Pre-emerge phytotoxicity rating (0-100), crop damage, RICE ([2]; 63 g ai/ha): 50
Pre-emerge phytotoxicity rating (0-100), crop damage, RICE ([2]; 250 g ai/ha): 70
phytotoxicity rating CASOB ([3]; 63 g ai/ha): 80
phytotoxicity rating CASOB ([3]; 250 g ai/ha): 80
phytotoxicity rating DIGSA ([4]; 63 g ai/ha): 0
phytotoxicity rating DIGSA ([4]; 250 g ai/ha): 10
phytotoxicity rating IPOHE ([5]; 63 g ai/ha): 100
phytotoxicity rating IPOHE ([5]; 250 g ai/ha): 100
phytotoxicity rating ECHCG ([6]; 63 g ai/ha): 10
phytotoxicity rating ECHCG ([6]; 250 g ai/ha): 30
phytotoxicity rating SORHA ([7]; 63 g ai/ha): 0
phytotoxicity rating SORHA ([7]; 250 g ai/ha): 30
phytotoxicity rating CHEAL ([8]; 63 g ai/ha): 80
phytotoxicity rating CHEAL ([8]; 250 g ai/ha): 90
phytotoxicity rating AMBEL ([9]; 63 g ai/ha): 100
phytotoxicity rating AMBEL ([9]; 250 g ai/ha): 100
phytotoxicity rating AMARE ([10]; 63 g ai/ha): 100
phytotoxicity rating AMARE ([10]; 250 g ai/ha): 100
phytotoxicity rating SETVI ([11]; 63 g ai/ha): 70
phytotoxicity rating SETVI ([11]; 250 g ai/ha): 100
phytotoxicity rating ABUTH ([12]; 63 g ai/ha): 100
phytotoxicity rating ABUTH ([12]; 250 g ai/ha): 100
Pre-emerge Herbicidal Activity, phytotoxicity rating (0-100), CASOB ([13]; 63 g ai/ha): 30
Pre-emerge Herbicidal Activity, phytotoxicity rating (0-100), CASOB ([13]; 250 g ai/ha): 60
Pre-emerge Herbicidal Activity, phytotoxicity rating (0-100), DIGSA ([14]; 63 g ai/ha): 90
Pre-emerge Herbicidal Activity, phytotoxicity rating (0-100), DIGSA ([14]; 250 g ai/ha): 100
Pre-emerge Herbicidal Activity, phytotoxicity rating (0-100), IPOHE ([15]; 63 g ai/ha): 20
Pre-emerge Herbicidal Activity, phytotoxicity rating (0-100), IPOHE ([15]; 250 g ai/ha): 95
Pre-emerge Herbicidal Activity, phytotoxicity rating (0-100), ECHCG ([16]; 63 g ai/ha): 20
Pre-emerge Herbicidal Activity, phytotoxicity rating (0-100), ECHCG ([16]; 250 g ai/ha): 100
Pre-emerge Herbicidal Activity, phytotoxicity rating (0-100), SORHA ([17]; 63 g ai/ha): 40
Pre-emerge Herbicidal Activity, phytotoxicity rating (0-100), SORHA ([17]; 250 g ai/ha): 95
Pre-emerge Herbicidal Activity, phytotoxicity rating (0-100), CHEAL ([18]; 63 g ai/ha): 100
Pre-emerge Herbicidal Activity, phytotoxicity rating (0-100), CHEAL ([18]; 250 g ai/ha): 100
Pre-emerge Herbicidal Activity, phytotoxicity rating (0-100), SETVI ([19]; 63 g ai/ha): 100
Pre-emerge Herbicidal Activity, phytotoxicity rating (0-100), SETVI ([19]; 250 g ai/ha): 100
Pre-emerge Herbicidal Activity, phytotoxicity rating (0-100), ABUTH ([20]; 63 g ai/ha): 100
Pre-emerge Herbicidal Activity, phytotoxicity rating (0-100), ABUTH ([20]; 250 g ai/ha): 100
phytotoxicity rating CORN ([21]; 63 g ai/ha): 0
phytotoxicity rating CORN ([21]; 250 g ai/ha): 10
phytotoxicity rating RICE ([22]; 63 g ai/ha): 0
phytotoxicity rating RICE ([22]; 250 g ai/ha): 30
Pre-emerge Herbicidal Activity, phytotoxicity rating (0-100), AMARE ([23]; 63 g ai/ha): 100
Pre-emerge Herbicidal Activity, phytotoxicity rating (0-100), AMARE ([23]; 250 g ai/ha): 100

COc1c(Cl)cc(F)c(-n2c(=O)cc(C(F)(F)F)n(C)c2=O)c1NC(=O)Cc1ccccc1 [2-151]
phytotoxicity rating CORN (crop damage) ([1]; 63 g ai/ha): 0
phytotoxicity rating CORN (crop damage) ([1]; 250 g ai/ha): 30
phytotoxicity rating RICE (crop damage) ([2]; 63 g ai/ha): 0
phytotoxicity rating RICE (crop damage) ([2]; 250 g ai/ha): 30
CASOB phytotoxicity rating ([3]; 63 g ai/ha): 10
CASOB phytotoxicity rating ([3]; 250 g ai/ha): 50
DIGSA phytotoxicity rating ([4]; 63 g ai/ha): 0
DIGSA phytotoxicity rating ([4]; 250 g ai/ha): 0
IPOHE phytotoxicity rating ([5]; 63 g ai/ha): 30
IPOHE phytotoxicity rating ([5]; 250 g ai/ha): 100
ECHCG phytotoxicity rating ([6]; 63 g ai/ha): 0
ECHCG phytotoxicity rating ([6]; 250 g ai/ha): 0
SORHA phytotoxicity rating ([7]; 63 g ai/ha): 0
SORHA phytotoxicity rating ([7]; 250 g ai/ha): 0
CHEAL phytotoxicity rating ([8]; 63 g ai/ha): 10
CHEAL phytotoxicity rating ([8]; 250 g ai/ha): 10
AMBEL phytotoxicity rating ([9]; 63 g ai/ha): 20
AMBEL phytotoxicity rating ([9]; 250 g ai/ha): 30
AMARE phytotoxicity rating ([10]; 63 g ai/ha): 10
AMARE phytotoxicity rating ([10]; 250 g ai/ha): 20
SETVI phytotoxicity rating ([11]; 63 g ai/ha): 0
SETVI phytotoxicity rating ([11]; 250 g ai/ha): 0
ABUTH phytotoxicity rating ([12]; 63 g ai/ha): 0
ABUTH phytotoxicity rating ([12]; 250 g ai/ha): 50
phytotoxicity rating CASOB ([13]; 63 g ai/ha): 0
phytotoxicity rating CASOB ([13]; 250 g ai/ha): 70
phytotoxicity rating DIGSA ([14]; 63 g ai/ha): 0
phytotoxicity rating DIGSA ([14]; 250 g ai/ha): 40
phytotoxicity rating IPOHE ([15]; 63 g ai/ha): 0
phytotoxicity rating IPOHE ([15]; 250 g ai/ha): 40
phytotoxicity rating ECHCG ([16]; 63 g ai/ha): 0
phytotoxicity rating ECHCG ([16]; 250 g ai/ha): 0
phytotoxicity rating SORHA ([17]; 63 g ai/ha): 0
phytotoxicity rating SORHA ([17]; 250 g ai/ha): 40
phytotoxicity rating CHEAL ([18]; 63 g ai/ha): 0
phytotoxicity rating CHEAL ([18]; 250 g ai/ha): 80
phytotoxicity rating SETVI ([19]; 63 g ai/ha): 0
phytotoxicity rating SETVI ([19]; 250 g ai/ha): 0
phytotoxicity rating ABUTH ([20]; 63 g ai/ha): 30
phytotoxicity rating ABUTH ([20]; 250 g ai/ha): 100
CORN phytotoxicity rating (crop damage) ([21]; 63 g ai/ha): 0
CORN phytotoxicity rating (crop damage) ([21]; 250 g ai/ha): 0
RICE phytotoxicity rating (crop damage) ([22]; 63 g ai/ha): 0
RICE phytotoxicity rating (crop damage) ([22]; 250 g ai/ha): 10
phytotoxicity rating AMARE ([23]; 63 g ai/ha): 0
phytotoxicity rating AMARE ([23]; 250 g ai/ha): 0
